Laboratory results published in patent publication US7943551B2, “3-cyclopropyl-4-(3-thiobenzoyl) pyrazoles and their use as herbicides” (Bayer Cropscience AG, priority 2007, dated 2011).

How the values were obtained:
Assay type in all cases: in vivo
Viola tricolor [1] = assay: Pre-emergence herbicidal action; details: 80 g of a.i./ha
Description: Seeds or rhizome pieces of mono- and dicotyledonous harmful plants are placed in sandy loam in pots of a diameter of 9 to 13 cm and covered with soil. The herbicides, formulated as emulsifiable concentrates or dusts, are applied to the surface of the covering soil in the form of aqueous dispersions or suspensions or emulsions at an application rate of 300 to 800 l of water/ha (converted), […] For further cultivation of the plants, the pots are then kept in a greenhouse under optimum conditions. The visual scoring of the damage to the harmful plants is carried out 3-4 weeks after the treatment. Here, the compounds of Nos. 1-3, 1-15, 1-44 and 1-1407 show an activity of at least 90% against Echinochloa crus galli. The compounds of Nos. 1-15, 1-45, 1-1407 and 1-1419 show an activity of at least 90% against Abutilon theophrasti. The compounds of Nos. 1-3, 1-45, 1-1406 and 1-1418 show an activity of at least 90% against Amaranthus retroflexus. The compounds of Nos. 1-44, 1-1406, 1-1407 and 1-1419 show an activity of at least 90% against Stellaria media.
(§1) The comparative tests of Tables 1 to 24 below show the superiority of the compounds according to the invention over the compounds known from the prior art.
(§2) • ABUTH Abutilon theophrasti ALOMY Alopecurus myosuroides • AMARE Amaranthus retroflexus AVEFA Avena fatua • CHEAL Chenopodium album ECHCG Echinochloa crus galli • GALAP Galium aparine LOLMU Lolium multiflorum • MATIN Matricaria inodora PHBPU Pharbitis purpureum • POLCO Fallopia convolvulus STEME Stellaria media • VERPE Veronica persica VIOTR Viola tricolor • XANST Xanthium strumarium Crop Plants • GLXMA Glycine max (soybeans) TRZAS Triticum aestivum (wheat) • ZEAMX Zea mays (corn)

Abutilon theophrasti [2] = assay: Pre-emergence herbicidal action; details: 320 g of a.i./ha, visual scoring 3-4 weeks after treatment
Description: (§3) Seeds or rhizome pieces of mono- and dicotyledonous harmful plants are placed in sandy loam in pots of a diameter of 9 to 13 cm and covered with soil. The herbicides, formulated as emulsifiable concentrates or dusts, are applied to the surface of the covering soil in the form of aqueous dispersions or suspensions or emulsions at an application rate of 300 to 800 l of water/ha (converted), at a dosage of 320 grams per hectare. For further cultivation of the plants, the pots are then kept in a greenhouse under optimum conditions. The visual scoring of the damage to the harmful plants is carried out 3-4 weeks after the treatment. Here, the compounds of Nos. 1-3, 1-15, 1-44 and 1-1407 show an activity of at least 90% against Echinochloa crus galli. The compounds of Nos. 1-15, 1-45, 1-1407 and 1-1419 show an activity of at least 90% against Abutilon theophrasti. The compounds of Nos. 1-3, 1-45, 1-1406 and 1-1418 show an activity of at least 90% against Amaranthus retroflexus. The compounds of Nos. 1-44, 1-1406, 1-1407 and 1-1419 show an activity of at least 90% against Stellaria media.
as §1, §2

Matricaria inodora [3] = assay: Pre-emergence herbicidal action; details: Tripleurospermum inodorum, 320 g of a.i./ha, read-out: Herbicidal activity in % against MATIN
Description: as §3, §1, §2

Xanthium strumarium = assay: Post-emergence herbicidal action; details: read-out: Herbicidal activity in % against XANST; for pest or weed control at 80 g/ha: 80 g of a.i./ha; for pest or weed control at 20 g/ha: 20 g of a.i./ha
Protocol: (§4) Seeds of mono- and dicotyledonous harmful plants are placed in sandy loam in cardboard pots, covered with soil and grown in the greenhouse under good growth conditions. Two to three weeks after sowing, the test plants are treated at the three-leaf stage. The compounds according to the invention, which are formulated as wettable powders or as emulsion concentrates, are sprayed at an application rate of 600 to 800 l of water/ha (converted) in a dosage of 80 grams per hectare onto the surface of the green plant parts. The visual scoring of the damage to the harmful plants is carried out 3-4 weeks after the treatment. Here, the compounds of Nos. 1-39, 1-40, 1-1382 and 1-2091 show an activity of at least 90% against Echinochloa crus galli. The compounds of Nos. 1-3, 1-44 and 1-2091 shown an activity of at least 90% against Abutilon theophrasti. The compounds of Nos. 1-39, 1-40 and 1-1382 show an activity of at least 90% against Veronica persica. The compounds of Nos. 1-3, 1-38, 1-39, 1-1406 and 1-1407 show an activity of at least 90% against Stellaria media.
as §1, §2

Echinochloa crus galli = assay: Post-emergence herbicidal action; details: read-out: Herbicidal activity in % against ECHCG; for pest or weed control at 80 g/ha: 80 g of a.i./ha, visual scoring 3-4 weeks after treatment; for pest or weed control at 20 g/ha: 20 g of a.i./ha
Protocol: as §4, §1, §2

Viola tricolor [4] = assay: Post-emergence herbicidal action; details: 80 g of a.i./ha, read-out: Herbicidal activity in % against VIOTR
Protocol: as §4, §1, §2

Abutilon theophrasti [5] = assay: Post-emergence herbicidal action; details: for pest or weed control at 20 g/ha / pest or weed control at 80 g/ha: Abutilon theophrasti, read-out: Herbicidal activity in % against ABUTH; for pest or weed control at 20 g/ha: 20 g of a.i./ha
Protocol: as §4, with “The compounds according to the invention, which are formulated as wettable powders or as emulsion concentrates, are sprayed at an application rate of 600 to 800 l of water/ha (converted) in a dosage of 80 grams per hectare onto the surface of the green plant parts.” left out
as §1, §2

Stellaria media = assay: Post-emergence herbicidal action; details: 80 g of a.i./ha, visual scoring 3-4 weeks after treatment; for pest or weed control at 80 g/ha: Stellaria media, read-out: Herbicidal activity in % against STEME
Protocol: as §4, §1, §2

Matricaria inodora [6] = assay: Post-emergence herbicidal action; details: Tripleurospermum inodorum, 80 g of a.i./ha, read-out: Herbicidal activity in % against MATIN
Protocol: as §4, §1, §2

Pharbitis purpureum = assay: Post-emergence herbicidal action; details: 80 g of a.i./ha
Protocol: as §4, §1, §2

Veronica persica = assay: Post-emergence herbicidal action; details: 80 g of a.i./ha, visual scoring 3-4 weeks after treatment, read-out: Herbicidal activity in % against VERPE
Protocol: as §4, §1, §2

[7] = 80 g of a.i./ha, visual scoring 3-4 weeks after treatment

Structure (SMILES): CC[S+]([O-])c1c(S(C)(=O)=O)ccc(C(=O)c2c(C3CC3)nn(C)c2O)c1C (stereo not shown)
- Herbicidal activity in % against VIOTR (Viola tricolor [1]): 60%

Structure (SMILES): CCSc1c(C(F)(F)F)ccc(C(=O)c2c(C3CC3)nn(C)c2O)c1C
- Herbicidal activity in % against ABUTH (Abutilon theophrasti [2]): 90%
- pest or weed control at 320 g/ha (Matricaria inodora [3]): 0%

Structure (SMILES): COCCSc1c(S(C)(=O)=O)ccc(C(=O)c2c(C3CC3)nn(C)c2O)c1C
- pest or weed control at 80 g/ha (Xanthium strumarium): 90%
- pest or weed control at 80 g/ha (Echinochloa crus galli): 90%
- pest or weed control at 80 g/ha (Viola tricolor [4]): 90%

Structure (SMILES): Cn1nc(C2CC2)c(C(=O)c2ccc(Cl)c(SCC3CC3)c2Cl)c1O
- pest or weed control at 20 g/ha (Xanthium strumarium): 70%
- pest or weed control at 20 g/ha (Abutilon theophrasti [5]): 60%

Structure (SMILES): COCCSc1c(S(C)(=O)=O)ccc(C(=O)c2c(C3CC3)nn(C)c2O)c1Cl [No. 1-3, 4-(2-chloro-3-(2-methoxyethyl)thio-4-methylsulfonylbenzoyl)-3-cyclopropyl-5-hydroxy-1-methylpyrazole]
- pest or weed control at 80 g/ha (Stellaria media): ≥ 90%
- pest or weed control at 80 g/ha (Abutilon theophrasti [5]; [7]): ≥ 90%

Structure (SMILES): Cc1c(C(=O)c2c(C3CC3)nn(C)c2O)ccc(S(C)(=O)=O)c1SCC1CC1 [No. 1-38, 3-cyclopropyl-4-(3-cyclopropylmethylthio-2-methyl-4-methylsulfonylbenzoyl)-5-hydroxy-1-methylpyrazole]
- pest or weed control at 80 g/ha (Stellaria media): ≥ 90%

Structure (SMILES): Cc1c(C(=O)c2c(C3CC3)nn(C)c2O)ccc(Cl)c1SCC1CC1 [No. 1-1406, 4-(4-chloro-3′-cyclopropylmethylthio-2-methylbenzoyl)-3-cyclopropyl-5-hydroxy-1-methylpyrazole]
- pest or weed control at 80 g/ha (Stellaria media): ≥ 90%

Structure (SMILES): COCCSc1c(C(F)(F)F)ccc(C(=O)c2c(C3CC3)nn(C)c2O)c1C [No. 1-2091, 3-cyclopropyl-5-hydroxy-4-(3-(2-methoxyethyl)thio-2-methyl-4-trifluoromethylbenzoyl)-1-methylpyrazole]
- pest or weed control at 80 g/ha (Echinochloa crus galli): ≥ 90%
- pest or weed control at 80 g/ha (Abutilon theophrasti [5]; [7]): ≥ 90%

Structure (SMILES): COCC[S+]([O-])c1c(S(C)(=O)=O)ccc(C(=O)c2c(C3CC3)nn(C)c2O)c1C (stereo not shown) [drawing 11]
- Herbicidal activity in % against VIOTR (Viola tricolor [1]): 70%

Structure (SMILES): COCCSc1c(C(F)(F)F)ccc(C(=O)c2c(C3CC3)nn(C)c2O)c1C [drawing 19]
- Herbicidal activity in % against ABUTH (Abutilon theophrasti [2]): 100%
- pest or weed control at 320 g/ha (Matricaria inodora [3]): 60%

Structure (SMILES): CSc1c(C(F)(F)F)ccc(C(=O)c2c(C3CC3)nn(C)c2O)c1C [drawing 20]
- Herbicidal activity in % against ABUTH (Abutilon theophrasti [2]): 50%
- pest or weed control at 320 g/ha (Matricaria inodora [3]): 0%

Structure (SMILES): Cc1c(C(=O)c2c(C3CC3)nn(C)c2O)ccc(S(C)(=O)=O)c1SCC1CC1 [drawing 29]
- pest or weed control at 80 g/ha (Xanthium strumarium): 90%
- pest or weed control at 80 g/ha (Echinochloa crus galli): 100%
- pest or weed control at 80 g/ha (Viola tricolor [4]): 90%

Structure (SMILES): CSc1c(S(C)(=O)=O)ccc(C(=O)c2c(C3CC3)nn(C)c2O)c1C [drawing 30, reference compound]
- pest or weed control at 80 g/ha (Xanthium strumarium): 60%
- pest or weed control at 80 g/ha (Echinochloa crus galli): 80%
- pest or weed control at 80 g/ha (Viola tricolor [4]): 70%

Structure (SMILES): Cc1c(C(=O)c2c(C3CC3)nn(C)c2O)ccc(Cl)c1SCC1CC1 [drawing 39]
- pest or weed control at 80 g/ha (Echinochloa crus galli): 90%
- pest or weed control at 80 g/ha (Matricaria inodora [6]): 70%
- Herbicidal activity in % against PHBPU (Pharbitis purpureum): 70%
- Herbicidal activity in % against STEME (Stellaria media): 100%

Structure (SMILES): CCSc1c(Cl)ccc(C(=O)c2c(C3CC3)nn(C)c2O)c1C [drawing 40, reference compound]
- pest or weed control at 80 g/ha (Echinochloa crus galli): 80%
- pest or weed control at 80 g/ha (Matricaria inodora [6]): 40%
- Herbicidal activity in % against PHBPU (Pharbitis purpureum): 40%
- pest or weed control at 80 g/ha (Stellaria media): 90%

Structure (SMILES): COCCSc1c(Cl)ccc(C(=O)c2c(C3CC3)nn(C)c2O)c1C [drawing 41]
- pest or weed control at 80 g/ha (Echinochloa crus galli): 90%
- pest or weed control at 80 g/ha (Matricaria inodora [6]): 80%
- Herbicidal activity in % against PHBPU (Pharbitis purpureum): 80%
- pest or weed control at 80 g/ha (Stellaria media): 100%

Structure (SMILES): COCCSc1c(C(F)(F)F)ccc(C(=O)c2c(C3CC3)nn(C)c2O)c1C [drawing 45]
- pest or weed control at 20 g/ha (Echinochloa crus galli): 80%
- pest or weed control at 20 g/ha (Abutilon theophrasti [5]): 80%

Structure (SMILES): CSc1c(C(F)(F)F)ccc(C(=O)c2c(C3CC3)nn(C)c2O)c1C [drawing 46, reference compound]
- pest or weed control at 20 g/ha (Echinochloa crus galli): 60%
- pest or weed control at 20 g/ha (Abutilon theophrasti [5]): 70%

Structure (SMILES): COCCSc1c(S(C)(=O)=O)ccc(C(=O)c2c(C3CC3)nn(C)c2O)c1Cl [drawing 47]
- pest or weed control at 80 g/ha (Viola tricolor [4]): 70%
- pest or weed control at 80 g/ha (Matricaria inodora [6]): 70%
- Herbicidal activity in % against ABUTH (Abutilon theophrasti [5]; [7]): 90%

Structure (SMILES): CCSc1c(S(C)(=O)=O)ccc(C(=O)c2c(C3CC3)nn(C)c2O)c1Cl [drawing 48, reference compound]
- pest or weed control at 80 g/ha (Viola tricolor [4]): 60%
- pest or weed control at 80 g/ha (Matricaria inodora [6]): 0%
- pest or weed control at 80 g/ha (Abutilon theophrasti [5]; [7]): 80%

Structure (SMILES): CSc1c(S(C)(=O)=O)ccc(C(=O)c2c(C3CC3)nn(C)c2O)c1Cl [drawing 50, reference compound]
- pest or weed control at 80 g/ha (Viola tricolor [4]): 60%
- pest or weed control at 80 g/ha (Matricaria inodora [6]): 30%
- pest or weed control at 80 g/ha (Abutilon theophrasti [5]; [7]): 80%

Structure (SMILES): COCCSc1c(S(C)(=O)=O)ccc(C(=O)c2c(C3CC3)nn(C)c2O)c1Cl [drawing 51]
- pest or weed control at 80 g/ha (Veronica persica): 100%
- Herbicidal activity in % against PHBPU (Pharbitis purpureum): 60%
- Herbicidal activity in % against STEME (Stellaria media): 90%

Structure (SMILES): CSc1c(S(C)(=O)=O)ccc(C(=O)c2c(C3CC3)nn(C)c2O)c1Cl [drawing 52, reference compound]
- pest or weed control at 80 g/ha (Veronica persica): 80%
- Herbicidal activity in % against PHBPU (Pharbitis purpureum): 50%
- pest or weed control at 80 g/ha (Stellaria media): 80%

Structure (SMILES): CCSc1c(S(C)(=O)=O)ccc(C(=O)c2c(C3CC3)nn(C)c2O)c1C [reference compound]
- pest or weed control at 80 g/ha (Xanthium strumarium): 80%
- pest or weed control at 80 g/ha (Echinochloa crus galli): 80%
- pest or weed control at 80 g/ha (Viola tricolor [4]): 70%

Structure (SMILES): CCSc1c(Cl)ccc(C(=O)c2c(C3CC3)nn(C)c2O)c1Cl [reference compound]
- pest or weed control at 20 g/ha (Xanthium strumarium): 50%
- pest or weed control at 20 g/ha (Abutilon theophrasti [5]): 40%
